The text below walks through data of patent US20150157584A1, “INHIBITORS OF HIPPO-YAP SIGNALING PATHWAY” (The Regents of the University of California, priority 2012, published 2015).

Where two headings read alike, the source gives them in different places. Residues, ends and D or L forms follow the SMILES beside them. *: point of attachment. Cbz = O=C(OCc1ccccc1)*

In test [1] the test system is YAP/TAZ. Put plainly: immunoblotting / phos-tag gels of YAP/TAZ phosphorylation in cultured cell lines. The settings on record: for YAP phosphorylation by PDE inhibitors: ibudilast 100 μM, IBMX 100 μM, rolipram 50 μM, theophylline 1 mM, 1 hr; for YAP dephosphorylation, different doses: different doses of LPA, S1P, LPC or PA for 1 h; for YAP/TAZ activation by growth factors: EGF 50 ng/ml, PDGF 50 ng/ml, insulin 200 nM, FGF 10 ng/ml; for YAP/TAZ phosphorylation by BSA preparations: serum-starved HEK293A, 1 or 10 mg/ml BSA. In kind it is cell-based, human. The method, then: Immunoblotting was performed using standard protocol. […] The phos-tag reagents were purchased from Wako Chemicals, and gels containing phos-tag were prepared according to manufacture's instructions. YAP proteins can be separated into multiple bands in the presence of phos-tag depending on differential phosphorylation levels, with phosphorylated proteins run migrate slower.
(§1) Immunoblotting was performed using standard protocol. Antibodies for pYAP (S127), YAP, TAZ (V386), pCREB, CREB, pMLC2 (S19), pMLC2 (T18/S19), MST1, MST2, and Lats1 were from Cell Signaling Technology. Lats2 antibody was from Bethyl laboratories. HA-HRP, GFP, and MLC2 antibodies were from Santa Cruz biotechnology. Tubulin, HSP90 and Flag-HRP were purchased from Sigma Aldrich. PKA antibody was obtained from BD biosciences. GAPDH antibody was a gift from Dr. Yan Luo. Yki antibody was a gift from Dr. Kenneth Irvine. The phos-tag reagents were purchased from Wako Chemicals, and gels containing phos-tag and MnC12 were prepared according to manufacturer's instructions. YAP proteins can be separated into multiple bands on phos-tag gels, with the phosphorylated form of YAP proteins migrating at a slower speed.
On the technique in general: Immunoblotting shows a protein as a band on a membrane.

Test [2] relates to YAP/TAZ. Put plainly: immunoblotting of YAP/TAZ phosphorylation in mouse cells (primary hepatocytes, 3T3-L1). In kind it is cell-based. The method, then: (§2) Immunoblotting was performed using standard protocol. Antibodies for pYAP (S127), pYAP(S381/384), pMST1/2, TAZ, pERK, ERK1/2, Lats1, MST1, pAKT (S473), pS6K, S6K were from Cell Signaling, antibodies for YAP (H-125), CTGF, Cyr61, Gq/11, G13 and 14-3-3θ were from Santa Cruz, TEAD1 antibody was from BD biosciences, pTAZ (S89) antibody was in-house raised, GAPDH antibody was a gift from Dr. Yan Luo. The phos-tag reagents were purchased from Wako Chemicals, and gels containing phos-tag were prepared according to manufacture's instructions. YAP proteins can be separated into multiple bands in the presence of phos-tag depending on differential phosphorylation levels, with phosphorylated proteins run migrate slower.
as §1

The test system of test [3] is 3T3-L1 cells. Put plainly: adipogenesis of 3T3-L1 cells (oil red staining). In kind it is cell-based, mouse. Particulars: 3T3-L1 with insulin, dexamethasone, troglitazone; IBMX 250 μM; KT5720 5 μM. As for the experimental part:
Adipogenesis. Murine 3T3-L1 cells were maintained in DMEM medium containing 10% calf serum (Hyclone). To initiate adipocyte differentiation, confluent 3T3-L1 cells switched into FBS containing DMEM medium; in addition, insulin, dexamethasone, troglitazone (Tro) were added; in selected samples, IBMX (250 μM) or forskolin (100 μM) were used to increase cAMP and PKA activity. For experiments using KT5720, 3T3-L1 cells were pre-treated with KT5720 (5 μM) overnight in advance and fresh KT5720 was added when adipogenesis was initiated. Two days later, medium was changed into DMEM containing 10% FBS and insulin. And after another two days, cells were incubated in DMEM with FBS. Cells were typically harvested on day 6 depending on the formation and maturation of lipid droplets. Cells were then subjected to RNA extraction or oil red (Sigma Aldrich) staining according to manufacturer's instructions.

Test [4] concerns Lats1. Put plainly: Lats1 immunoprecipitation kinase assay with GST-YAP substrate. The format is cell-based, human. Particulars: HEK293A; Ki16425 10 μM 30 min; C3 2 μg/ml 4 h.
Protocol: Lats1 or HA-Lats2 kinase assays were performed similarly but using GST-YAP as substrates in the absence of [γ-^32P] ATP. The phosphorylation of GST-YAP at S127 was determined by immunoblotting using pYAP antibody.
Cells were lysed using mild lysis buffer (50 mM HEPES at pH 7.5, 150 mM NaCl, 1 mM EDTA, 1% NP-40, 10 mM pyrophosphate, 10 mM glycerophosphate, 50 mM NaF, 1.5 mM Na3VO4, protease inhibitor cocktail [Roche], 1 mM PMSF). Cell lysates were cleared and used for immunoprecipitation. Lats1 antibody (Cell Signaling Technology) was mixed with cell lysates for 1 hr at 4° C., and then protein A agarose beads were added in for 1 hr. After four washes with lysis buffer, beads were washed once with wash buffer (40 mM HEPES, 200 mM NaCl) and once with kinase assay buffer (30 mM HEPES, 50 mM potassium acetate, 5 mM MgCl2). The immunoprecipitated Lats1 was then subjected to a kinase assay in the presence of 500 μM cold ATP, 10 μCi [γ-32P] ATP, and 1 μg of GST-YAP expressed and purified from Escherichia coli as substrate. The reaction mixtures were incubated for 30 min at 30° C., terminated with SDS sample buffer, and subjected to SDS-PAGE and immunoblotting.
The test system of test [5] is YAP. The format is cell-based, human.
Test [6] relates to CTGF. Put plainly: expression of YAP/TAZ target gene CTGF. In kind it is cell-based, human. Particulars: HEK293A. As for the experimental part:
as §2
Following various treatments, cells were washed with cold phosphate-buffered saline and subjected to RNA extraction using an RNeasy Plus mini kit (Qiagen). […] Complementary DNA was then diluted and used for quantification (with β-actin gene as a control) by real-time PCR, which was performed using KAPA SYBR FAST qPCR master mix (Kapa Biosystems) and the 7300 real-time PCR system (Applied Biosystems). […]
RNA extraction, reverse transcription and real-time PCR. […] After dilution, cDNA levels were quantified by real-time PCR using KAPA SYBR FAST qPCR master mix (Kapa Biosystems) and the 7300 real-time PCR system (Applied Biosystems). […]

[7] abbreviates: 3T3-L1, 10 μM forskolin, 100 μM IBMX or 5 μM KT5720, 1 hr.
Setting [8] is: HEK293A pre-treated 30 min (1 μM Torin1, 10 μM U0126, 10 μM SB253580, 10 nM wortmannin), then 10% FBS 1 h.

On to `Oc1cc2c(cc1O)[C@H]1c3ccccc3CN[C@@H]1CC2` (racemic) [Dihydrexidine], for which the YAP phosphorylation result in test [1] (U2OS cells, 10 μM, 1 h) is “strong increase”.

Turning to `CO[C@@H]1[C@@H]2OP(=O)(O)OC[C@H]2O[C@H]1n1c(Sc2ccc(Cl)cc2)nc2c(N)ncnc21` [8-CPT-2′-O-Me-cAMP], in test [1] (HEK293A, 1 h), the “YAP phosphorylation by PKA or Epac selective activators” value was “less dramatic”.

On to `CC(C)Cn1c(=O)n(C)c(=O)c2[nH]cnc21` [IBMX], for which, in test [2] (setting [7]), the TAZ protein level result was “decreased” and the YAP phosphorylation entry is “induced”. The “YAP phosphorylation by PDE inhibitors” value in test [1] (MDA-MB-231) was “induced YAP phosphorylation”. Besides, in test [3], the adipogenesis entry is “induced”.

Turning to `CCCCCCOC(=O)[C@]1(O)C[C@@H]2O[C@@]1(C)n1c3ccccc3c3c4c(c5c6ccccc6n2c5c31)C(=O)NC4` [KT5720], in test [2] (setting [7]), the TAZ protein level entry is “increased”. Also, the YAP phosphorylation entry was “repressed” in test [2] (setting [7]) and “decreased” in test [1] (MDA-MB-231, KT5720 5 μM). Further, in test [2] (primary hepatocytes isolated from mice, KT5720), the “effect on glucagon-induced YAP phosphorylation” value was “abolished”. Moreover, the “effect on forskolin- and epinephrine-induced YAP phosphorylation” value in test [1] (MDA-MB-231, KT5720 5 μM 30 min, then 10 μM epinephrine or forskolin 1 hr) is on record as “largely blocked”. Moreover, the adipogenesis entry in test [3] is recorded as “inhibited”.

On to `Cc1noc(-c2ccc(CSCCC(=O)O)cc2)c1NC(=O)OC(C)c1ccccc1Cl` (stereo not drawn) [Ki16425], for which the “effect on Lats1 inhibition by LPA, S1P, and serum” value in test [4] was “effectively blocked”. Also, in test [1] (HEK293A, Ki16425 10 μM, 30 min), the “effect on LPA-induced dephosphorylation of YAP/TAZ” value is “blocked” and the “effect on S1P-induced dephosphorylation of YAP/TAZ” value is recorded as “not”. Moreover, the “effect on the ability of serum to repress YAP/TAZ phosphorylation” value in test [1] (HEK293A, Ki16425 10 μM, particularly at 0.2% serum) is listed as “partially inhibited”.

Take `CC(C)C[C@@H](C=O)NC(=O)[C@H](CC(C)C)NC(=O)[C@H](CC(C)C)NC(=O)OCc1ccccc1` [MG132] (Cbz-Leu-Leu-Leu-aldehyde): in test [5], the “YAP protein levels under various doses of C108 with proteasome inhibitor” value was “mostly maintained”.

Regarding `CCCCCCCCCCCCC/C=C/[C@@H](O)[C@@H](N)COP(=O)(O)O` [S1P, sphingosine 1-phosphate], the “expression of CTGF” value in test [6] is reported as “induced”. Further, the “YAP/TAZ dephosphorylation, time course” value in test [1] (HEK293A, 1 μM for indicated times) is “potently induced YAP/TAZ dephosphorylation”. The “YAP dephosphorylation, different doses” value in test [1] (HEK293A) is “potently induced”.

Consider `C[S+]([O-])c1ccc(-c2nc(-c3ccc(F)cc3)c(-c3ccncc3)[nH]2)cc1` (stereo not drawn) [SB253580], for which the “effect on the ability of FBS to dephosphorylate YAP/TAZ” value (“effect … to dephosphorylate YAP/TAZ” below) in test [1] (setting [8]) was “no effect”.

`N#CC(=C(/N)Sc1ccccc1N)/C(C#N)=C(\N)Sc1ccccc1N` [U0126]: the “effect … to dephosphorylate YAP/TAZ” value in test [1] is “no effect”.

On to `O=C(Nc1ncnc2c1ncn2[C@@H]1O[C@@H]2COP(=O)(O)O[C@H]2[C@H]1O)c1ccccc1` [b-Bnz-cAMP], for which the “YAP phosphorylation by PKA or Epac selective activators” value in test [1] (HEK293A, 1 h) is on record as “dramatically increased”.

Take `C/C1=C/C(=O)O[C@@H]2C[C@@H](CC[C@H](C)/C=C\CC1)O[C@@](O)([C@@H]1CSC(=O)N1)C2` [latrunculin B]: the “effect on the effects of LPA or S1P on YAP” value in test [1] (HEK293A 1 μg/ml LatB 30 min, MCF10A localization) is “blocked”.

Regarding `COc1ccc(C2CNC(=O)C2)cc1OC1CCCC1` (stereo not drawn) [rolipram], the “YAP phosphorylation by PDE inhibitors” value in test [1] (MDA-MB-231) is on record as “induced YAP phosphorylation”.

Take `Cn1c(=O)c2[nH]cnc2n(C)c1=O` [theophylline]: in test [1] (MDA-MB-231), the “YAP phosphorylation by PDE inhibitors” value is reported as “induced YAP phosphorylation”.

With `CCC(=O)N1CCN(c2ccc(-n3c(=O)ccc4cnc5ccc(-c6cnc7ccccc7c6)cc5c43)cc2C(F)(F)F)CC1` [torin], the “effect … to dephosphorylate YAP/TAZ” value in test [1] (setting [8]) is on record as “no effect”.

Take `COC[C@H]1OC(=O)c2coc3c2[C@@]1(C)C1=C(C3=O)[C@@H]2CCC(=O)[C@@]2(C)C[C@H]1OC(C)=O` [wortmannin]: the “effect … to dephosphorylate YAP/TAZ” value in test [1] (setting [8]) is “no effect”.

EGF: growth factor tested: the “YAP/TAZ activation by growth factors” value in test [1] (HEK293A) is on record as “not involved”.

Consider “Fraction V BSA: BSA prepared by ethanol precipitation”, for which the “YAP/TAZ phosphorylation by BSA preparations” value in test [1] (1 h) is recorded as “no activity”.

Turning to PDGF, the “YAP/TAZ activation by growth factors” value in test [1] (HEK293A) is reported as “not involved”.

Consider “fatty acid-free BSA: fatty acid-free BSA preparation”, for which, in test [1] (1 h), the “YAP/TAZ phosphorylation by BSA preparations” value is listed as “no activity”.

In the case of glucagon: ligand known to activate PKA, the YAP phosphorylation entry in test [2] (primary hepatocytes isolated from mice, glucagon) is on record as “increased”; in test [2] (primary mouse hepatocytes, 2 μM glucagon, 1 h), “increased”.

Turning to insulin: growth factor tested, the “YAP/TAZ activation by growth factors” value in test [1] (HEK293A) is recorded as “not involved”.

With phosphatidic acid [PA], in test [1] (HEK293A, 100 μM lipid), the “dephosphorylation of YAP/TAZ by phospholipids” value is “strongly induced dephosphorylation”. Further, in test [1] (HEK293A, 1 h), the “concentration needed to induce YAP dephosphorylation” value was determined as 100 µM. In test [1] (HEK293A), the “YAP dephosphorylation, different doses” value is listed as “much higher concentrations”. In test [1] (YAP dephosphorylation, HEK293A), the “potency relative to LPA (times less potent)” value was 1,000 times.
